# Measurements published in the NIST ThermoML archive (doi:10.1016/j.fluid.2013.06.028).
# ± gives the expanded uncertainty stated by the source.
# Assay: activity coefficient (dimensionless); of the first substance listed, at infinite dilution; xn = mol fraction of the nth substance listed
# Conditions: 298 K; Liquid; Chromatography; x1 = 0
row,activity coefficient,Compound
1,32 ± 10,Fc1ccccc1 [fluorobenzene] + OCCO
2,42 ± 10,Ic1ccccc1 [iodobenzene] + OCCO
3,238 ± 51,c1ccc2ccccc2c1 [naphthalene] + OCCO

# More lines, now with the values behind:
row,Compound,activity coefficient
1,Brc1ccccc1 [bromobenzene] + OCCO,45 ± 10
2,c1ccccc1 [benzene] + OCCO,32 ± 6
3,Cc1ccccc1 [toluene] + OCCO,93 ± 12
4,Clc1ccccc1 [chlorobenzene] + OCCO,40 ± 8
